# According to patent publication US11753373B2, “Protease inhibitors as antivirals” (priority 2021, dated 2023):
# Like-named read-outs stand apart in the source and are kept apart here.
# How the values were obtained:
# [1] = system: SARS-CoV-2; assay: Anti-viral in vitro PRNT assay in Vero E6 cells; type: cell-based; conditions: for EC50: read-out: anti-SARS-CoV2 (PRNT) in Vero E6 EC50
# [2] = type: in vitro ADME, Human; conditions: extraction ratio, compound at 1 uM, human liver microsomes 0.5 mg/mL
# Procedure: (§1) Metabolic stability of novel protease inhibitors was determined via liver microsomal stability assay. Human, mouse, SD rat, beagle dog or monkey liver microsomes were incubated with the test compound for 5 to 60 minutes at 37° C., and then the remaining parent compound was quantified by LC-MS/MS. Percentage of the test compound remaining, half-life (t1/2), in vitro intrinsic clearance (CLint, in vitro), in vivo intrinsic clearance (CLint, in vivo), hepatic clearance (CLh) and extraction ratio (ER) were calculated.
# (§2) Procedure: The assay was done as described in Baranczewski, P. et al. (2006) Pharmacological Reports 58:453-472; Pearson, P. and Wienkers, L. (2008) Handbook of Drug Metabolism, 2nd Edition. CRC Pres, P.478; and Venkatesh, P. et al. (2007) Biol. Pharm. Bull. 30:1021-2024. 0.625 mg/mL liver microsomes solution was prepared by mixing 2325 μL 100 mM of K-phosphate buffer (pH 7.4) containing 2.5 mM of MgCl2, 1.25 mM of EDTA, and 75 μL microsomes (20 mg/mL) in a vial for each species.
# (§3) Positive control compound: (±) Verapamil hydrochloride (Cat No.: V4629; Lot No.: MKBV4993V; Source: Sigma)
# (§4) 40 μL aliquots of the liver microsome/test compound mixture were dispensed into 96-well plate in triplicate and pre-warmed the mixture for 5 minutes at 37° C. Then, 10 μL of 5 mM NADPH solution was added to each well to initiate the reaction, and gently mixed. The samples were incubated at 37° C. with gentle shaking.
# (§5) For 0-min samples, 200 μL of ACN containing internal standard was added to 40 μL of liver microsome/test compound mixture, followed by addition of 5 mM NADPH, and mixed gently.
# (§6) For negative control: 40 μL of liver microsome/test compound mixture was incubated at 37° C. with gentle shaking for 60 minutes, followed by addition of 200 μL ACN containing 1% FA and internal standard and 10 μL of 5 mM NADPH, mixed gently.
# (§7) All samples were centrifuged at 4° C. for 20 minutes at 4,000 rpm. Then, 100 μL of the supernatant from each sample was transferred to a new 96-well plate and 100 μL of ultrapure water containing 1% FA was added to each well, and mixed gently. Samples were analyzed by LC-MS/MS.
# (§8) Data Analysis: Peak area ratio (Peak Area of test compound/Peak Area of internal standard) was used to represent the concentration of compound in each sample. The remaining percentage (% Remaining) at appointed time points was calculated versus the concentration of compound at 0 min. The Ln value of the remaining percentage was linearly fitted against the incubation time.
# (§9) The half-life and clearance were calculated using the following equations:
# (§10) Determined percent of the remaining test compound: % remaining=[area at tx/average areas at t0]×100 (1) % metabolized=[100−% remaining] (2)
# (§11) Calculated the half-life (t1/2) using the slope (k) of the log-linear regression from the concentration of remaining parent compound versus time (min) relationship: t1/2 (min)=−ln 2/k. (3)
# (§12) Clint, in vitro (mL/min/mg) Clint,in vitro=k/c,(c:Liver microsome concentration in the incubation system) (4)
# (§13) Hepatic Clearance (CLh) CLh=Clint,in vivo*Hepatic Blood Flow (mL/min/kg)/(Hepatic Blood Flow (mL/min/kg)+Clint,in vivo) (6)
# (§14) Extraction ratio (ER): ER=CLint,in vivo/(Qh+CLint,in vivo)*100,Qh:liver blood flow (7)
# [3] = type: in vitro ADME; conditions: extraction ratio, compound at 1 uM; for Liver Microsomal Stability (ER) SD rat: SD rat liver microsomes 0.5 mg/mL; for Liver Microsomal Stability (ER) Beagle dog: beagle dog liver microsomes 0.5 mg/mL; for Liver Microsomal Stability (ER) Mouse: mouse liver microsomes 0.5 mg/mL
# Procedure: as §1, §2, §3
# as §4, with “shaking. (Final concentrations: compound=1 μM; liver microsomes protein=0.5 mg/mL; MgCl2=2 mM; EDTA=1 mM; ACN=0.1%; DMSO=0.05%).” for “shaking.”
# as §5, §6, §7, §8, §9, §10, §11, §12, §13, §14
# [4] = Vero E6 cells, 1000 pfu, 3 days, plaque reduction
smiles,measurement,setting,value
"COC(=O)[C@H](C[C@@H]1CCNC1=O)NC(=O)[C@H](CC(C)C)NC(=O)c1cc2ccccc2[nH]1 [Compound A-1-a, methyl (S)-2-((S)-2-(1H-indole-2-carboxamido)-4-methylpentanamido)-3-((S)-2-oxopyrrolidin-3-yl)propanoate]",anti-SARS-CoV2 (PRNT) in Vero E6 EC50 (μM),[1]; [4],inactive
"CC(C)C[C@H](NC(=O)c1cc2ccccc2[nH]1)C(=O)N[C@@H](C[C@@H]1CCNC1=O)C(=O)O [Compound A-1-e, (2S)-2-[(2S)-2-[(1H-indol-2-yl)formamido]-4-methylpentanamido]-3-[(3S)-2-oxopyrrolidin-3-yl]propanoic acid]",Liver Microsomal Stability (ER) Human,[2],0.00
same,Liver Microsomal Stability (ER) SD rat,[3],−0.02
same,Liver Microsomal Stability (ER) Beagle dog,[3],0.02
same,Liver Microsomal Stability (ER) Mouse,[3],0.09
O=C[C@H](C[C@@H]1CCNC1=O)NC(=O)[C@H](CC1CCCCC1)NC(=O)c1cc2ccccc2[nH]1 [Compound A-2-c],EC50,[1],640 nM
CC(C)C[C@@H](NC(=O)c1cc2c(F)cccc2[nH]1)C(=O)N[C@H](C#N)C[C@@H]1CCNC1=O [Compound A-3-b],Liver Microsomal Stability (ER) Human,[2],0.18
same,Liver Microsomal Stability (ER) SD rat,[3],0.37
same,Liver Microsomal Stability (ER) Beagle dog,[3],0.06
same,Liver Microsomal Stability (ER) Mouse,[3],0.37
CC(C)C[C@H](NC(=O)c1cc2c(F)cccc2[nH]1)C(=O)N[C@H](C=O)C[C@@H]1CCNC1=O [Compound A-3-c],Liver Microsomal Stability (ER) Human,[2],0.18
same,Liver Microsomal Stability (ER) SD rat,[3],0.14
same,Liver Microsomal Stability (ER) Beagle dog,[3],−0.02
same,Liver Microsomal Stability (ER) Mouse,[3],0.14
same,EC50,[1]; [4],310 nM
COc1cccc2[nH]c(C(=O)N[C@@H](CC(C)C)C(=O)N[C@H](C=O)C[C@@H]3CCNC3=O)cc12 [Compound A-5-a],Liver Microsomal Stability (ER) Human,[2],0.10
same,Liver Microsomal Stability (ER) SD rat,[3],0.11
same,Liver Microsomal Stability (ER) Beagle dog,[3],0.05
same,Liver Microsomal Stability (ER) Mouse,[3],0.19
same,EC50,[1]; [4],1520 nM
COc1cccc2[nH]c(C(=O)N[C@@H](CC(C)C)C(=O)N[C@H](C#N)C[C@@H]3CCNC3=O)cc12 [Compound A-5-b],Liver Microsomal Stability (ER) Human,[2],0.08
same,Liver Microsomal Stability (ER) SD rat,[3],0.22
same,Liver Microsomal Stability (ER) Beagle dog,[3],0.12
same,Liver Microsomal Stability (ER) Monkey,[3]; monkey liver microsomes 0.5 mg/mL,0.47
same,Liver Microsomal Stability (ER) Mouse,[3],0.11
same,anti-SARS-CoV2 (PRNT) in Vero E6 EC50 (μM),[1]; [4],inactive
COc1cccc2[nH]c(C(=O)N[C@@H](CC(C)C)C(=O)N[C@@H](C[C@@H]3CCNC3=O)C(=O)CO)cc12 [Compound A-5-d],Liver Microsomal Stability (ER) Human,[2],0.09
same,Liver Microsomal Stability (ER) SD rat,[3],0.11
same,Liver Microsomal Stability (ER) Beagle dog,[3],0.07
same,Liver Microsomal Stability (ER) Mouse,[3],0.38
same,EC50,[1]; [4],3500 nM
"COC(=O)[C@H](C[C@@H]1CCNC1=O)NC(=O)[C@H](CC(C)C)NC(=O)OCc1ccccc1 [Compound B-1-a, methyl (S)-2-((S)-2-(((benzyloxy)carbonyl)-amino)-4-methylpentanamido)-3-((S)-2-oxopyrrolidin-3-yl)propanoate]",anti-SARS-CoV2 (PRNT) in Vero E6 EC50 (μM),[1]; [4],inactive
"CC(C)C[C@H](NC(=O)OCc1ccccc1)C(=O)N[C@H](C=O)C[C@@H]1CCNC1=O [Compound B-1-b, benzyl ((S)-4-methyl-1-oxo-1-(((S)-1-oxo-3-((S)-2-oxopyrrolidin-3-yl)propan-2-yl)amino)pentan-2-yl)carbamate]",EC50,"[1]; Severe acute respiratory syndrome coronavirus 2, Vero C1008, 72 h",1130 nM
CC(C)C[C@H](NC(=O)OCc1ccccc1)C(=O)N[C@@H](C[C@@H]1CCNC1=O)C(=O)CCl [Compound B-1-c],EC50,[1],2290 nM
C=CC(=O)[C@H](C[C@@H]1CCNC1=O)NC(=O)[C@H](CC(C)C)NC(=O)OCc1ccccc1 [Compound B-1-d],anti-SARS-CoV2 (PRNT) in Vero E6 EC50 (μM),[1],inactive
"COC(=O)[C@H](C[C@@H]1CCNC1=O)NC(=O)[C@H](CC1CCCCC1)NC(=O)OCc1ccccc1 [Compound B-2-a, methyl (S)-2-((S)-2-(((benzyloxy)carbonyl)amino)-3-cyclohexylpropan-amido)-3-((S)-2-oxopyrrolidin-3-yl)propanoate]",anti-SARS-CoV2 (PRNT) in Vero E6 EC50 (μM),[1]; [4],inactive
"COC(=O)[C@H](C[C@@H]1CCNC1=O)NC(=O)[C@@H]1[C@@H]2[C@H](CN1C(=O)[C@@H](NC(=O)C(F)(F)F)C(C)(C)C)C2(C)C [Compound D-1-a, methyl (2S)-2-{[(1R,2S,5S)-3-[(2S)-3,3-dimethyl-2-(trifluoroacetamido)-butanoyl]-1,5-dihydrogenio-6,6-dimethyl-3-azabicyclo[3.1.0]hexan-2-yl]formamido}-3-[(3S)-2-oxopyrrolidin-3-yl]propanoate]",anti-SARS-CoV2 (PRNT) in Vero E6 EC50 (μM),[1],inactive
CC(C)(C)[C@H](NC(=O)C(F)(F)F)C(=O)N[C@@H](CC1CCCCC1)C(=O)N[C@H](C#N)C[C@@H]1CCNC1=O [Compound D-4-a],Liver Microsomal Stability (ER) Human,[2],0.46
same,Liver Microsomal Stability (ER) SD rat,[3],0.29
same,Liver Microsomal Stability (ER) Beagle dog,[3],0.21
same,Liver Microsomal Stability (ER) Mouse,[3],0.72
C[C@@H](C=O)NC(=O)[C@H](CC1CCCCC1)N(C(=O)OCc1ccccc1)C1CC1 [Compound E-1-b],anti-SARS-CoV2 (PRNT) in Vero E6 EC50 (μM),[1],inactive
"COC(=O)[C@H](C)NC(=O)[C@@H]1[C@@H]2[C@H](CN1C(=O)[C@@H](NC(=O)C(F)(F)F)C(C)(C)C)C2(C)C [Compound F-1-a, methyl ((1R,2S,5S)-3-((S)-3,3-dimethyl-2-(2,2,2-trifluoroacetamido)butanoyl)-6,6-dimethyl-3-azabicyclo[3.1.0]hexane-2-carbonyl)-L-alaninate]",anti-SARS-CoV2 (PRNT) in Vero E6 EC50 (μM),[1],inactive
C[C@@H](C#N)NC(=O)[C@@H]1[C@@H]2[C@H](CN1C(=O)[C@@H](NC(=O)C(F)(F)F)C(C)(C)C)C2(C)C [Compound F-1-c],anti-SARS-CoV2 (PRNT) in Vero E6 EC50 (μM),[1],inactive
C=CC(=O)N[C@H](C)NC(=O)[C@@H]1[C@@H]2[C@H](CN1C(=O)[C@@H](NC(=O)C(F)(F)F)C(C)(C)C)C2(C)C [Compound F-1-d],anti-SARS-CoV2 (PRNT) in Vero E6 EC50 (μM),[1],inactive
"COC(=O)[C@@H](NC(=O)[C@@H]1[C@@H]2[C@H](CN1C(=O)[C@@H](NC(=O)C(F)(F)F)C(C)(C)C)C2(C)C)C(C)C [Compound F-2-a, methyl ((1R,2S,5S)-3-((S)-3,3-dimethyl-2-(2,2,2-trifluoroacetamido)-butanoyl)-6,6-dimethyl-3-azabicyclo[3.1.0]hexane-2-carbonyl)-L-valinate]",anti-SARS-CoV2 (PRNT) in Vero E6 EC50 (μM),[1],inactive
CC(C)[C@@H](C#N)NC(=O)[C@@H]1[C@@H]2[C@H](CN1C(=O)[C@@H](NC(=O)C(F)(F)F)C(C)(C)C)C2(C)C [Compound F-2-c],anti-SARS-CoV2 (PRNT) in Vero E6 EC50 (μM),[1],inactive
C=CC(=O)N[C@@H](NC(=O)[C@@H]1[C@@H]2[C@H](CN1C(=O)[C@@H](NC(=O)C(F)(F)F)C(C)(C)C)C2(C)C)C(C)C [Compound F-2-d],anti-SARS-CoV2 (PRNT) in Vero E6 EC50 (μM),[1],inactive
C[C@@H](C#N)NC(=O)[C@@H]1[C@@H]2[C@H](CN1C(=O)[C@@H](NC(=O)C(F)(F)F)C1CC1)C2(C)C [Compound F-3-a],anti-SARS-CoV2 (PRNT) in Vero E6 EC50 (μM),[1],inactive
C=CC(=O)N[C@@H](NC(=O)[C@@H]1[C@@H]2[C@H](CN1C(=O)[C@@H](NC(=O)C(F)(F)F)C1CC1)C2(C)C)C(C)C [Compound F-4-b],anti-SARS-CoV2 (PRNT) in Vero E6 EC50 (μM),[1],inactive
